Test results taken from patent US20090068113A1, “AMPHIPHILIC SQUARAINE DYES, PROCESS FOR PREPARATION THEREOF AND USE THEREOF” (COUNCIL OF SCIENTIFIC AND INDUSTRIAL RESEARCH, priority 2005, published 2009).

Key:
Type in all cases: physicochemical
[1] = Photophysical properties and fluorescence lifetimes in the presence of β-CD; conditions: for Abs λmax / Ems λmax / Φf: In the presence of β-CD
Excerpt: (§1) Study of the stability and photophysical properties of a photosensitizer under physiological conditions is important during its evaluation for various in vitro and in vivo applications. Particularly, the influence of membrane mimics like cetyltrimethylammonium bromide and carrier systems like β-cyclodextrin will provide information on the sensitizer behaviour under physiological conditions. Moreover, such studies are also useful to clarify points such as whether a particular dye forms aggregates or not and whether it generates cytotoxic agents or not in such environments. These media are unique in their properties, since β-CD forms inclusion complexes with the guest molecules, while others form micellar structures thereby provide in them both the hydrophobic and hydrophilic environment.
Table 5 summarises the absorption and emission maxima, fluorescence quantum yields and lifetimes of squaraine dyes of the general formula 1 in the presence of β-CD.

[2] = Photophysical properties and picosecond time-resolved fluorescence lifetimes in the presence of cationic micelle CTAB; conditions: for Abs λmax / Ems λmax / Φf: In the presence of CTAB
Excerpt: as §1
(§2) FIGS. 3, 4, and 5 show the emission spectra of dye of the general formula 1, wherein, R^1=—(CH2—CH2—O)n—CH3, n=4 and R^2=—CH3 in the presence of cationic micelle CTAB, anionic micelle SDS and neutral micelle Triton X-100, respectively. As the concentration of micelles increases, the fluorescence intensity of the dye increases showing an effective interaction between the micelles and the dye. To have a better understanding of the effect of micellar media we have analyzed the picosecond time-resolved fluorescence lifetimes of dyes of the general formula 1. […] Tables 2, 3 and 4
(§3) lists the absorption and emission maxima, fluorescence quantum yield and lifetimes of dyes of the general formula 1 wherein, R^1=—(CH2—CH2—O)n—CH3, n=4 and R^2=—CH3, general formula 2, wherein R^1, R^2=—(CH2—CH2—O)n—CH3, n=4 and general formula 3, wherein R^1=—(CH2)n—CO2X, n=3, X=H, and R^2=—CH3, in the absence and presence of cationic micelle CTAB, anionic micelle SDS and neutral micelle Triton X-100.

[3] = Absorption, emission and fluorescence quantum yield in aqueous and alcoholic solvents
Excerpt: The absorption and emission maxima, and fluorescence quantum yields of these dyes in aqueous and alcoholic solvents are listed in Table 1. The long wavelength absorption and emission maxima and good fluorescence quantum yields in aqueous media make these dyes ideal candidates for application as fluorescence probes.

[4] = Photophysical properties and fluorescence lifetimes in the presence of neutral micelle Triton X-100
Excerpt: as §1, §2, §3

[5] = Summary of photophysical properties in the presence of membrane mimics and drug carriers; conditions: presence of membrane mimics and drug carriers versus aqueous media
Excerpt: The main advantages of these systems include: • 1. Squaraines dyes represented by formulae 1, 2 and 3 are novel and pure single substances. • 2. Their synthetic methodology is very economical. • 3. […] They can be used for photodynamic applications such as sterilization of fluids etc. • 7. The squaraine-based dyes can be used as near infrared fluorescent probes for protein labeling. • 8. The squaraine dyes of the general formula 1 can be used as near infrared fluorescent labels in immunoassays. • 9. They can be used for the detection of biologically important metal ions under physiological conditions. • 10. These novel dyes can be used as near-infrared fluorescence sensors in biological, biochemical and industrial applications.

[6] = Photophysical properties and fluorescence lifetimes in the presence of anionic micelle SDS
Excerpt: as §1, §2, §3

[7] = Photophysical properties and fluorescence lifetimes in the presence of β-CD; conditions: in the absence of β-CD
[8] = In the presence of Triton X-100

Row | Abs λmax [1] [nm] | Ems λmax [1] [nm] | Φf [1] | Abs λmax [2] [nm] | Ems λmax [2] [nm] | Φf [2] | Φf (fluorescence quantum yield) ([3]; 10% v/v Ethanol/water) | λmax, nm abs ([3]; 10% v/v Ethanol/water) [nm] | λmax, nm ems ([3]; 10% v/v Ethanol/water) [nm] | Φf (fluorescence quantum yield) ([3]; Ethanol) | λmax, nm abs ([3]; Ethanol) [nm] | λmax, nm ems ([3]; Ethanol) [nm] | Φf (fluorescence quantum yield) ([3]; Water) | λmax, nm abs ([3]; Water) [nm] | λmax, nm ems ([3]; Water) [nm] | Abs λmax [4, 8] [nm] | Ems λmax [4, 8] [nm] | Φf [4, 8] | increase of emission quantum yield [5] [fold] | Abs λmax ([6]; In the presence of SDS) [nm] | Structure (SMILES) | also measured
1 | 649 | 666 | 0.19 | 644 | 667 | 0.14 | 0.015 | 647 | 673 | 0.18 | 636 | 662 | 0.007 | 645 | 673 | 649 | 672 | 0.12 | ~10 | – | CN(CCCC(=O)O)c1ccc(C2=C([O-])C(=C3C=CC(=[N+](C)CCCC(=O)O)C=C3)C2=O)cc1 [Formula 3] | –
2 | 645 | 668 | 0.07 | 644 | 667 | 0.096 | 0.026 | 646 | 675 | 0.21 | 638 | 662 | 0.021 | 646 | 676 | 646 | 671 | 0.14 | ~10 | 643 | COCCOCCOCCOCCN(CCOCCOCCOCCOC)c1ccc(C2=C([O-])C(=C3C=CC(=[N+](CCOCCOCCOCCOC)CCOCCOCCOCCOC)C=C3)C2=O)cc1 [Formula 2] | Relative contribution of lifetime component [4, 8]: (7%); Ems λmax ([6]; In the presence of SDS): 668 nm; Φf ([6]; In the presence of SDS): 0.16
3 | 644 | 663 | 0.10 | 642 | 663 | 0.12 | 0.018 | 645 | 674 | 0.19 | 637 | 660 | 0.013 | 644 | 671 | 645 | 669 | 0.12 | ~10 | 640 | COCCOCCOCCOCCN(C)c1ccc(C2=C([O-])C(=C3C=CC(=[N+](C)CCOCCOCCOCCOC)C=C3)C2=O)cc1 [Formula 1] | form of fluorescence decay [7]: mono exponential decay; form of fluorescence decay ([1]; in the presence of β-CD): Biexponential decay; fluorescence intensity as the concentration of micelles increases ([2]; CTAB 0 to 129 mM, excitation 600 nm): increases; fluorescence intensity as the concentration of micelles increases ([4]; Triton X-100 0 to 118 mM, excitation 600 nm): increases; Ems λmax ([6]; In the presence of SDS): 663 nm; Lifetimes ([6]; In the presence of SDS): 590 ps; Φf ([6]; In the presence of SDS): 0.15; fluorescence intensity as the concentration of micelles increases ([6]; SDS 0 to 21 mM, excitation 600 nm): increases
